Reference: patent US20240148744A1 (Celgene Corporation, priority 2021, published 2024)

Tests used:
[1] = test system: Onchocerca gutturosa adult male worms; assay: Onchocerca gutturosa in vitro screening model: adult worm motility score and MTT/formazan viability; assay type: cell-based; conditions: read-out: O. gutt Activity class
[2] = test system: Dirofilaria immitis; assay: Heartworm screen Dirofilaria immitis (stage DiMF/DiL4 not specified in the tables); assay type: cell-based; conditions: read-out: D. immitis Activity class

SMILES: Cc1ccc(S(=O)(=O)Nc2cc(F)cc3cccnc23)nc1 [Compound 88, N-(6-fluoro-quinolin-8-yl)-5-methyl-pyridine-2-sulfonamide]
- IC50 [1]: 0.5 to 5 µM
- IC50 [2]: 0.5 to 5 µM

SMILES: CCn1ccnc1S(=O)(=O)Nc1cccc2c(OC)ccnc12 [Compound 122, 1-ethyl-N-(4-methoxyquin-olin-8-yl)-1H-imidazole-2-sulfonamide]
- IC50 [1]: < 0.2 µM
- IC50 [2]: 0.5 to 5 µM

SMILES: Cc1ccc(S(=O)(=O)Nc2ccc(F)c3cccnc23)nc1 [Compound 126, N-(5-fluoro-quinolin-8-yl)-5-methylpyr-idine-2-sulfon-amide]
- IC50 [1]: 0.5 to 5 µM
- IC50 [2]: 0.2 to 0.5 µM

SMILES: COc1cc(NS(=O)(=O)c2ccc(C)cn2)c2ncccc2c1 [Compound 125, N-(6-methoxy-quinolin-8-yl)-5-methylpyr-idine-2-sulfon-amide]
- IC50 [1]: < 0.2 µM
- IC50 [2]: 0.5 to 5 µM

SMILES: Cc1ccc(S(=O)(=O)Nc2ccc(Cl)c3cccnc23)nc1 [Compound 118, N-(5-chloro-quinolin-8-yl)-5-methylpyr-idine-2-sulfon-amide]
- IC50 [1]: < 0.2 µM
- IC50 [2]: 0.5 to 5 µM

SMILES: O=S(=O)(Nc1cccc2cccnc12)c1cc(Cl)ccn1 [Compound 220, 4-chloro-N-(quinolin-8-yl)pyridine-2-sulfonamide]
- IC50 [1]: < 0.2 µM
- IC50 [2]: < 0.2 µM

SMILES: CCn1ccnc1S(=O)(=O)Nc1cccc2ccc(C)nc12 [Compound 106, 1-ethyl-N-(2-methylquin-olin-8-yl)-1H-imidazole-2-sulfonamide]
- IC50 [1]: 0.5 to 5 µM
- IC50 [2]: 0.2 to 0.5 µM

SMILES: O=S(=O)(Nc1cccc2cccnc12)c1ccc(C(F)F)nc1 [Compound 153, 6-(difluoromethyl)-N-(quinolin-8-yl)pyridine-3-sulfonamide]
- IC50 [1]: 0.5 to 5 µM
- IC50 [2]: 0.5 to 5 µM

SMILES: Cc1cccnc1S(=O)(=O)Nc1cccc2c1N(C)CCC2 [Compound 55, 3-methyl-N-(1-methyl-1,2,3,4-tetra-hydroquin-olin-8-yl)-pyridine-2-sulfonamide]
- IC50 [1]: 0.5 to 5 µM
- IC50 [2]: 0.5 to 5 µM

SMILES: O=S(=O)(Nc1cccc2cccnc12)c1ccc(-c2ccc(F)cc2)nc1 [Compound 182, 6-(4-fluorophenyl)-N-(quinolin-8-yl)pyridine-3-sulfonamide]
- IC50 [1]: < 0.2 µM
- IC50 [2]: 0.5 to 5 µM

SMILES: CCn1ccnc1S(=O)(=O)Nc1ccc(C)c2cccnc12 [Compound 83, 1-ethyl-N-(5-methylquin-olin-8-yl)-1H-imidazole-2-sulfonamide]
- IC50 [1]: < 0.2 µM
- IC50 [2]: 0.2 to 0.5 µM

SMILES: CCn1ccnc1S(=O)(=O)Nc1cccc2cc(OC)cnc12 [Compound 86, 1-ethyl-N-(3-methoxyquin-olin-8-yl)-1H-imidazole-2-sulfonamide]
- IC50 [1]: < 0.2 µM
- IC50 [2]: 0.2 to 0.5 µM

SMILES: O=S(=O)(Nc1cccc2cccnc12)c1ccnc(C2CC2)c1 [Compound 152]
- IC50 [1]: < 0.2 µM
- IC50 [2]: 0.5 to 5 µM

SMILES: COc1ccnc2c(NS(=O)(=O)c3ccc(C)cn3)cccc12 [Compound 124, N-(4-methoxy-quinolin-8-yl)-5-methylpyr-idine-2-sulfon-amide]
- IC50 [1]: < 0.2 µM
- IC50 [2]: 0.5 to 5 µM

SMILES: Cc1ccc(S(=O)(=O)Nc2cccc3cc(Cl)cnc23)nc1 [Compound 120, N-(3-chloro-quinolin-8-yl)-5-methylpyr-idine-2-sulfon-amide]
- IC50 [1]: 0.2 to 0.5 µM
- IC50 [2]: 0.2 to 0.5 µM

SMILES: Cc1nccnc1S(=O)(=O)Nc1ccc(N2CCOCC2)c2cccnc12 [Compound 75, 3-methyl-N-(5-morpho-linoquinolin-8-yl)pyrazine-2-sulfonamide]
- IC50 [1]: < 0.2 µM
- IC50 [2]: 0.5 to 5 µM

SMILES: Cc1cccnc1S(=O)(=O)Nc1cccc2cccnc12 [Compound 213, 3-methyl-N-(quinolin-8-yl)pyridine-2-sulfonamide]
- IC50 [1]: < 0.2 µM
- IC50 [2]: 0.5 to 5 µM

SMILES: Cc1ccc(S(=O)(=O)Nc2cccc3cc(C)cnc23)nc1 [Compound 113, 5-methyl-N-(3-methyl-quinolin-8-yl)-pyridine-2-sulfonamide]
- IC50 [1]: < 0.2 µM
- IC50 [2]: 0.2 to 0.5 µM

SMILES: Cc1cc(S(=O)(=O)Nc2cccc3cccnc23)ccn1 [Compound 154, 2-methyl-N-(quinolin-8-yl)pyridine-4-sulfonamide]
- IC50 [1]: 0.2 to 0.5 µM
- IC50 [2]: 0.5 to 5 µM

SMILES: O=S(=O)(Nc1cccc2cccnc12)c1nccc2ccccc12 [Compound 225, N-(quinolin-8-yl)isoquinoline-1-sulfonamide]
- IC50 [1]: < 0.2 µM
- IC50 [2]: 0.5 to 5 µM

SMILES: C[C@@H](C1CC1)n1ccnc1S(=O)(=O)Nc1cccc2cccnc12 [Compound 185, (S)-1-(1-cyclopropyl-ethyl)-N-(quinolin-8-yl)-1H-imidazole-2-sulfonamide]
- IC50 [1]: < 0.2 µM
- IC50 [2]: 0.2 to 0.5 µM

SMILES: CC(C)Oc1ccnc(S(=O)(=O)Nc2cccc3cccnc23)c1 [Compound 245, 4-isopropoxy-N-(quinolin-8-yl)pyridine-2-sulfonamide]
- IC50 [1]: < 0.2 µM
- IC50 [2]: 0.2 to 0.5 µM

SMILES: Cc1ccc(S(=O)(=O)Nc2cccc3cccnc23)c(C)n1 [Compound 187, 2,6-dimethyl-N-(quinolin-8-yl)pyridine-3-sulfonamide]
- IC50 [1]: 0.5 to 5 µM
- IC50 [2]: 0.5 to 5 µM

SMILES: Cc1cccnc1S(=O)(=O)Nc1cccc2c(C3CC3)ccnc12 [Compound 27, N-(4-cyclo-propylquin-olin-8-yl)-3-methylpyr-idine-2-sulfonamide]
- IC50 [1]: 0.5 to 5 µM
- IC50 [2]: 0.5 to 5 µM

SMILES: Cc1ccc(S(=O)(=O)Nc2cccc3c(Cl)ccnc23)nc1 [Compound 119, N-(4-chloro-quinolin-8-yl)-5-methylpyr-idine-2-sulfon-amide]
- IC50 [1]: < 0.2 µM
- IC50 [2]: 0.5 to 5 µM

SMILES: Cc1cccnc1S(=O)(=O)Nc1c(N2CCOCC2)ccc2cccnc12 [Compound 18, 3-methyl-N-(7-morpho-linoquinolin-8-yl)pyridine-2-sulfonamide]
- IC50 [1]: 0.2 to 0.5 µM
- IC50 [2]: 0.2 to 0.5 µM

SMILES: O=S(=O)(Nc1cccc2cccnc12)c1ccc(Cl)nc1C(F)(F)F [Compound 176, 6-chloro-N-(quinolin-8-yl)-2-(trifluoromethyl) pyridine-3-sulfonamide]
- IC50 [1]: 0.2 to 0.5 µM
- IC50 [2]: 0.5 to 5 µM

SMILES: CC(C)n1nccc1S(=O)(=O)Nc1cccc2cccnc12 [Compound 206, 1-isopropyl-N-(quinolin-8-yl)-1H-pyrazole-5-sulfonamide]
- IC50 [1]: 0.2 to 0.5 µM
- IC50 [2]: 0.5 to 5 µM

SMILES: O=S(=O)(Nc1cccc2cccnc12)c1ccnc(C(F)(F)F)c1 [Compound 158, N-(quinolin-8-yl)-2-(trifluoromethyl) pyridine-4-sulfonamide]
- IC50 [1]: 0.2 to 0.5 µM
- IC50 [2]: 0.5 to 5 µM

SMILES: Cc1ccc(S(=O)(=O)Nc2cccc3nccnc23)nc1 [Compound 196, 5-methyl-N-(quinoxalin-5-yl)pyridine-2-sulfonamide]
- IC50 [1]: 0.2 to 0.5 µM
- IC50 [2]: 0.2 to 0.5 µM

SMILES: Cc1cccnc1S(=O)(=O)Nc1c(C2CC2)ccc2cccnc12 [Compound 17, N-(7-cyclo-propylquin-olin-8-yl)-3-methylpyr-idine-2-sulfonamide]
- IC50 [1]: 0.2 to 0.5 µM
- IC50 [2]: 0.2 to 0.5 µM

SMILES: Cc1cccnc1S(=O)(=O)Nc1cccc2c(-c3ccccc3)ccnc12 [Compound 30, 3-methyl-N-(4-phenyl-quinolin-8-yl)pyridine-2-sulfonamide]
- IC50 [1]: 0.5 to 5 µM
- IC50 [2]: 0.5 to 5 µM

SMILES: CCn1ccnc1S(=O)(=O)Nc1cc(C)cc2cccnc12 [Compound 103, 1-ethyl-N-(6-methylquin-olin-8-yl)-1H-imidazole-2-sulfonamide]
- IC50 [1]: 0.5 to 5 µM
- IC50 [2]: 0.2 to 0.5 µM

SMILES: Cc1ccc(S(=O)(=O)Nc2cccc3cccnc23)nc1 [Compound 248, 5-methyl-N-(quinolin-8-yl)pyridine-2-sulfonamide]
- IC50 [1]: 0.5 to 5 µM
- IC50 [2]: 0.2 to 0.5 µM
